Series [1] in a line: Therapeutic index, ratio of CC50 for cytotoxicity against human Hep2 cells to EC50 for antiviral activity against Respiratory syncytial virus Long infected in HEp-2 cells. Type of series: toxicity, cell-based. As to conditions: read-out: Ratio CC50/EC50.
Series [2] relates to Respiratory syncytial virus. The series can be described thus: Antiviral activity against Respiratory syncytial virus Long infected in HEp-2 cells assessed as reduction in virus induced cytopathic effect measured after 6 days by MTT assay. As to conditions: human respiratory syncytial virus, HEp-2, 144 h. Type of series: functional, organism-based. On the technique in general: Protection from cytopathic effect is a common read-out in antiviral testing.

Series [3] in a line: Cytotoxicity against human Hep2 cells assessed as reduction in cell viability after 6 days by MTT assay. It counts as cell-based. As to conditions: HEp-2 cells. (In general: Formazan colour is commonly taken as a measure of viable cells.)
The nature of series [4]: Clearance in ICR mouse at 5 mg/kg, iv or 25 mg/kg, po administered as single dose. It counts as ADME, organism-based. As to conditions: in vivo.
The nature of series [5]: AUC in ICR mouse at 25 mg/kg, po administered as single dose. Type of series: ADME, organism-based. As to conditions: in vivo.
A short description of series [6]: Solubility of compound by LYSA assay. Type of series: physicochemical.
Series [7] is described as follows: Volume of distribution at steady state in ICR mouse at 5 mg/kg, iv administered as single dose. As to conditions: in vivo, read-out: Vdss. Type of series: ADME, organism-based.
A short description of series [8]: Half life in ICR mouse at 25 mg/kg, po administered as single dose. Type of series: ADME, organism-based. As to conditions: in vivo.
The test system of series [9] is Respiratory syncytial virus. Put plainly: Inhibition of Respiratory syncytial virus Long F protein expressed in Flp-In T-REx 293 cells assessed as reduction in syncytia formation at 10 nM after 3 days by microscopic analysis relative to control. Type of series: cell-based.
Series [10] deals with Respiratory syncytial virus. The series can be described thus: Inhibition of Respiratory syncytial virus Long F protein expressed in Flp-In T-REx 293 cells assessed as cell-cell fusion at 1 nM after 3 days by microscopic analysis. Type of series: cell-based.
The nature of series [11]: Oral bioavailability in ICR mouse at 25 mg/kg administered as single dose. Type of series: ADME, organism-based. As to conditions: in vivo.
The subject of series [12] is Respiratory syncytial virus. The series can be described thus: Inhibition of Respiratory syncytial virus Long F protein expressed in Flp-In T-REx 293 cells assessed as syncytia formation at 1 nM after 3 days by microscopic analysis. It counts as cell-based.
Series [13] is described as follows: Volume of distribution at steady state in ICR mouse at 2 mg/kg, iv administered as single dose. It counts as ADME, organism-based. As to conditions: in vivo, read-out: Vdss.
A short description of series [14]: Clearance in ICR mouse at 2 mg/kg, iv or 10 mg/kg, po administered as single dose. Type of series: ADME, organism-based. As to conditions: in vivo.
The nature of series [15]: Oral bioavailability in ICR mouse at 10 mg/kg administered as single dose. It counts as ADME, organism-based. As to conditions: in vivo.
Series [16] can be described thus: Half life in ICR mouse at 10 mg/kg, po administered as single dose. It counts as ADME, organism-based. As to conditions: in vivo.
Series [17] is described as follows: AUC in ICR mouse at 10 mg/kg, po administered as single dose. It counts as ADME, organism-based. As to conditions: in vivo.

In brackets after ≈: the same amount, converted by molar mass. Activity calls are given as the source filed them.

Regarding `CS(=O)(=O)CCn1c(CN2C(=O)C3(CC3)c3ccncc32)cc2c(Br)cccc21`, the selectivity ratio in series [1] turned out to be 3560. Further, the EC50 in [2] came out at 14 nM. The CC50 at 144 h in series [3] was determined as 49900 nM.

Turning to `CS(=O)(=O)CCn1c(CN2C(=O)C3(CC3)c3ccncc32)cc2nc(Cl)ccc21`, the selectivity ratio in series [1] worked out at 1180. In addition, the 50% effective concentration (EC50) in [2] was 63 nM. The CC50 at 144 h in [3] came out at 74500 nM.

Regarding `CS(=O)(=O)CCn1c(CN2C(=O)C3(CC3)c3ccncc32)cc2cc(Cl)ncc21`, in series [1], the selectivity ratio was found to be 300. In series [2], the EC50 stood at 330 nM. In [3], the CC50 at 144 h was 98900 nM.

On to `CS(=O)(=O)CCn1c(CN2C(=O)C3(CC3)c3ccncc32)cc2cc(Cl)cnc21`, for which, in series [4], the clearance was determined as 23.7 mL/min/kg. Besides, the AUC in series [5] worked out at 10200 µg/L/h. This compound also showed a solubility in [6] of 5 µg/mL (≈ 11.6 µM). Also, the Vd in series [7] worked out at 0.845 L/kg. The compound also gave a half-life in [8] of 0.7 h. Further, the selectivity ratio in [1] is 1600. The EC50 in [2] amounted to 26 nM. Also, in series [3], the CC50 at 144 h came out at 41700 nM.

As to `CS(=O)(=O)CCn1c(CN2C(=O)C3(CC3)c3ccncc32)cc2c(F)cccc21`, the selectivity ratio in [1] is more than 526. The EC50 in series [2] was determined as 190 nM. In [3], the CC50 at 144 h is more than 100000 nM.

Regarding `CS(=N)(=O)CCn1c(CN2C(=O)C3(CC3)c3ccncc32)cc2cc(Cl)ccc21` (configuration not stated), in series [1], the selectivity ratio was 11200. In [2], the EC50 was 7 nM. Further, the CC50 at 144 h in series [3] came to 78300 nM.

As to `CS(=O)(=O)CCn1c(CN2C(=O)C3(CC3)c3ccncc32)cc2c(C(F)(F)F)cccc21`, the selectivity ratio in series [1] is more than 179. In series [2], the EC50 was determined as 560 nM. Also, the CC50 at 144 h in series [3] is more than 100000 nM.

Regarding `C[S+]([O-])CCCn1c(CN2C(=O)C3(CC3)c3ccncc32)cc2cc(Cl)ccc21` (configuration not stated), the selectivity ratio in series [1] is 10200. The EC50 in series [2] came out at 9 nM. Besides, the CC50 at 144 h in [3] is 92100 nM.

As for `CS(=O)(=O)CCn1c(CN2C(=O)C3(CC3)c3cccnc32)cc2cc(Cl)ccc21`, the selectivity ratio in series [1] was more than 588. In addition, the EC50 in [2] stood at 170 nM. In addition, the CC50 at 144 h in series [3] is more than 100000 nM.

As for `CCc1cccc2c1cc(CN1C(=O)C3(CC3)c3ccncc31)n2CCS(C)(=O)=O`, the selectivity ratio in [1] was found to be 395. In series [2], the EC50 was found to be 220 nM. The CC50 at 144 h in [3] came to 86800 nM.

Take `CS(=O)(=O)CCn1c(CN2C(=O)C3(CC3)c3ccncc32)cc2ccccc21`: the selectivity ratio in series [1] was determined as 352. In [2], the EC50 stood at 220 nM. The CC50 at 144 h in series [3] is 77500 nM.

Consider `CS(=O)(=O)CCn1c(CN2C(=O)C3(CC3)c3ccncc32)cc2ccc(Cl)cc21`, for which the selectivity ratio in series [1] was 12. For the same compound, in series [2], the EC50 came out at 4830 nM. In series [3], the CC50 at 144 h stood at 59700 nM.

As to `O=C1N(Cc2cc3cc(Cl)ccc3n2[C@@H]2CCS(=O)(=O)C2)c2cnccc2C12CC2`, in [9], the inhibition amounted to 100%. Besides, the clearance in series [4] was 30.2 mL/min/kg. In addition, in series [5], the AUC worked out at 3360 µg/L/h. In series [6], this compound returned a solubility of 2 µg/mL (≈ 4.53 µM). Besides, the Vd in [7] stood at 2.35 L/kg. Further, the inhibition result in series [10] and in series [12] was “inactive” throughout. This compound also gave a half-life in series [8] of 3.04 h. In series [11], this compound yielded a bioavailability of 24.5%. Further, the selectivity ratio in series [1] amounted to 18600. The EC50 in series [2] was determined as 2 nM. The half-maximal cytotoxic concentration (CC50) at 144 h in [3] came out at 37100 nM.

Turning to `CS(=O)(=O)CCc1c(Cn2c(=O)n(C3CC3)c3ccncc32)nc2cc(Cl)ccn12`, the Vd in series [13] turned out to be 1.29 L/kg. In series [14], this compound gave a clearance of 93.3 mL/min/kg. The compound also showed a bioavailability in series [15] of 16.9%. The compound further showed a half-life in [16] of 1.73 h. Moreover, the AUC in [17] amounted to 315 µg/L/h.

In the case of `CS(=O)(=O)CCCCn1c(CN2C(=O)C3(CC3)c3ccncc32)cc2cc(Cl)ccc21`, the selectivity ratio in series [1] is more than 16700. In series [2], the EC50 was 6 nM. Besides, the CC50 at 144 h in series [3] is more than 100000 nM.

In the case of `O=C1N(Cc2cc3cc(Cl)ccc3n2[C@H]2CCS(=O)(=O)C2)c2cnccc2C12CC2`, in [1], the selectivity ratio is 4720. In addition, the EC50 in series [2] turned out to be 9 nM. The CC50 at 144 h in series [3] worked out at 42500 nM.

On to `CS(=N)(=O)CCCn1c(CN2C(=O)C3(CC3)c3ccncc32)cc2cc(Cl)ccc21` (configuration not stated), for which, in series [1], the selectivity ratio is 11400. The EC50 in series [2] is 6 nM. In addition, in series [3], the CC50 at 144 h was 68300 nM.

With `CS(=O)(=O)CCn1c(CN2C(=O)C3(CC3)c3ccncc32)cc2c(C#N)cccc21`, the selectivity ratio in [1] is more than 106. In addition, the EC50 in [2] was 940 nM. Moreover, the CC50 at 144 h in series [3] was more than 100000 nM.

On to `CS(=O)(=O)CCn1c(CN2C(=O)C3(CC3)c3cnccc32)cc2cc(Cl)ccc21`, for which the selectivity ratio in series [1] amounted to 484. Besides, in series [2], the EC50 worked out at 200 nM. The CC50 at 144 h in [3] came out at 96800 nM.

As to `CCS(=O)(=O)CCn1c(CN2C(=O)C3(CC3)c3ccncc32)cc2cc(Cl)ccc21`, the selectivity ratio in [1] was more than 12500. Moreover, the EC50 in series [2] was 8 nM. In addition, in [3], the CC50 at 144 h was more than 100000 nM.

For `CS(=O)(=O)CCn1c(CN2C(=O)C3(CC3)c3ccncc32)cc2cccc(Cl)c21`, in [1], the selectivity ratio is 543. Moreover, the EC50 in series [2] came out at 160 nM. The CC50 at 144 h in [3] is 86900 nM.

Compound `CS(=O)(=O)CCn1c(CN2C(=O)C3(CC3)c3ccncc32)cc2cc(Cl)ccc21` displayed a clearance in series [4] of 54.2 mL/min/kg. The same compound yielded an AUC in series [5] of 1550 µg/L/h. This compound also yielded a solubility in series [6] of 17 µg/mL (≈ 39.5 µM). In series [7], the Vd was found to be 1.38 L/kg. In addition, the half-life in series [8] is 0.64 h. Also, in [1], the selectivity ratio is 3740. The EC50 in series [2] is 18 nM. Also, the cytotoxic concentration (CC50) at 144 h in series [3] is 67400 nM.

Turning to `COc1cccc2c1cc(CN1C(=O)C3(CC3)c3ccncc31)n2CCS(C)(=O)=O`, the selectivity ratio in series [1] was more than 1350. Also, the EC50 in series [2] is 74 nM. Besides, the CC50 at 144 h in series [3] was more than 100000 nM.

On to `CCS(=O)(=O)CCCn1c(CN2C(=O)C3(CC3)c3ccncc32)cc2cc(Cl)ccc21`, for which the selectivity ratio in series [1] came to 17100. The EC50 in series [2] worked out at 3 nM. In series [3], the CC50 at 144 h was 51200 nM.

Consider `CS(=O)(=O)CCn1c(CN2C(=O)C3(CC3)c3ccncc32)cc2c(Cl)cccc21`, for which the selectivity ratio in [1] was more than 60. The EC50 in series [2] came out at 1670 nM. The CC50 at 144 h in [3] was more than 100000 nM.

In the case of `Cc1cccc2c1cc(CN1C(=O)C3(CC3)c3ccncc31)n2CCS(C)(=O)=O`, the selectivity ratio in series [1] was found to be 6840. In addition, the EC50 in [2] turned out to be 9 nM. Also, in [3], the CC50 at 144 h worked out at 61600 nM.

Consider `CS(=O)(=O)CCCn1c(CN2C(=O)C3(CC3)c3ccncc32)cc2cc(Cl)ccc21`, for which the selectivity ratio in series [1] stood at 12900. Moreover, in series [2], the EC50 is 3 nM. Moreover, the cytotoxic concentration (CC50) at 144 h in series [3] was 38600 nM.

For orientation: EC50 means the concentration giving half of the maximal effect. The term CC50 denotes the concentration giving 50% cytotoxicity. A word on the solubility: it is how much of the substance goes into solution per volume. Read a high solubility as much dissolved substance. Usually half-life stands for the time needed for the level to fall by half in the phase considered. High values mean slow loss, low ones fast loss. The inhibition is the relative decrease from the control value, in per cent. A word on the bioavailability: it is the share of a dose that reaches the circulation, judged against a reference dose that is usually intravenous. High values mean much systemic uptake, low ones little systemic uptake.

(Values after ChEMBL document CHEMBL4373654, “Discovery of (aza)indole derivatives as novel respiratory syncytial virus fusion inhibitors” (Medchemcomm, 2019).)
